What was measured:
[1] = format: in vivo, human
[2] = format: in vivo, human; remark: listed apart in the source
[3] = 28-day GLP dog toxicology studies; format: in vivo; conditions: dog (most sensitive species)
[4] = Projected human oral half-life; conditions: projection before first-in-human dosing
[5] = multiple doses of 150 mg and 300 mg once daily, individual patients
[6] = RP2D 600 mg twice a day (20 patients), any grade

With `C=C(F)C(=O)N1CCN(c2nc(OC[C@@H]3CCCN3C)nc3c2CCN(c2cccc4cccc(Cl)c24)C3)C[C@@H]1CC#N` [Adagrasib] as the molecule, how does the PTR [1, 5] read?
The PTR was “approximately three”.

And the drug accumulation [1, 5]?
Its drug accumulation is “approximately three- to four-fold”.

What about the accumulation of adagrasib ([1]; multiple doses of 600 mg twice a day, steady state) of the same molecule?
Its accumulation of adagrasib is “approximately five- to six-fold”.

And the DLTs ([2]; 150 mg, 300 mg, 600 mg once daily, one patient each)?
Its DLTs is “No DLTs”.

What about the “patients who experienced DLTs” value ([2]; 600 mg twice a day, DLT-evaluable patients) of the same molecule?
The value was “three of the 18”.

What about the “patients who experienced a DLT” value ([2]; 600 mg twice a day, first cohort of six evaluable patients) of the same molecule?
Its value is “one patient”.

What about the “TRAE fatigue, grade 3/4” value ([2]; RP2D 600 mg twice a day) of the same molecule?
Its value is 15.0%.

And the TRAE diarrhea [2, 6]?
The TRAE diarrhea was 70.0%.

And the TRAE fatigue [2, 6]?
The TRAE fatigue was 45.0%.

What about the TRAE nausea [2, 6] of the same molecule?
Its TRAE nausea is 80.0%.

And the TRAE vomiting [2, 6]?
The TRAE vomiting was 50.0%.

And the maximum tolerated dose ([2]; all dose cohorts)?
The maximum tolerated dose was “No maximum tolerated dose was formally defined”.

And the “patients who experienced one or more DLTs” value ([2]; all dose levels, 23 DLT-evaluable patients)?
Its value is 21.7%.

And the “recommended phase II dose (RP2D)” value ([2]; oral, based on safety, tolerability and PK)?
The value was 600 mg twice a day.

What about the “highest nonseverely toxic dose (HNSTD)” value [3] of the same molecule?
The value was 25 mg/kg/day.

What about the “projected human oral t1/2” value [4] of the same molecule?
Its value is “approximately 15 hours”.

— paper PMC9362872 (Journal of Clinical Oncology, 2022)
